Key:
Assay in all cases: relative viability (nuclei count vs DMSO), 5 days (fraction); higher = more cells survive
Zosuquidar + Decitabine = compound: O[C@@H](COc1cccc2ncccc12)CN1CCN([C@@H]2c3ccccc3[C@@H]3[C@H](c4ccccc42)C3(F)F)CC1 [Zosuquidar] + Nc1ncn([C@H]2C[C@H](O)[C@@H](CO)O2)c(=O)n1 [Decitabine] (partner 2 µM)
How it was run: (§1)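 For relative viability, nuclei counts in treated wells were divided by those in vehicle wells. Lung cancer cell lines had been pin-tool dosed in 1536-well plates the day after seeding and cultured for 5 days, then fixed and stained in one step (final 0.05% Triton X-100, 1% formaldehyde, 1 ug/ml Hoechst) and imaged at 4×. Doses were one drug alone or a fixed anchor-drug dose plus five library-drug doses (not always all listed) in √10 steps, and values are duplicate-plate medians.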

Cabozantinib + OSI-027 = compound: COc1cc2nccc(Oc3ccc(NC(=O)C4(C(=O)Nc5ccc(F)cc5)CC4)cc3)c2cc1OC [Cabozantinib] + COc1cccc2cc(-c3nc([C@H]4CC[C@H](C(=O)O)CC4)n4ncnc(N)c34)[nH]c12 [OSI-027] (partner 0.5 µM)
How it was run: as §1

Kobe2602 + Tozasertib = compound: C1=CC(=CC=C1NC(=S)NNC2=C(C=C(C=C2[N+](=O)[O-])C(F)(F)F)[N+](=O)[O-])F [Kobe2602] + Cc1cc(Nc2cc(N3CCN(C)CC3)nc(Sc3ccc(NC(=O)C4CC4)cc3)n2)n[nH]1 [Tozasertib] (partner 0.1 µM)
How it was run: as §1

Zosuquidar + Linsitinib = compound: O[C@@H](COc1cccc2ncccc12)CN1CCN([C@@H]2c3ccccc3[C@@H]3[C@H](c4ccccc42)C3(F)F)CC1 [Zosuquidar] + C[C@]1(O)C[C@@H](c2nc(-c3ccc4ccc(-c5ccccc5)nc4c3)c3c(N)nccn32)C1 [Linsitinib] (partner 1 µM)
How it was run: as §1

Cell Line	relative viability (Zosuquidar + Decitabine; first compound 0.01 µM)	relative viability (Zosuquidar + Decitabine; first compound 0.03162 µM)	relative viability (Zosuquidar + Decitabine; first compound 0.3162 µM)	relative viability (Zosuquidar + Decitabine; first compound 1 µM)	relative viability (Cabozantinib + OSI-027; first compound 0.02 µM)	relative viability (Cabozantinib + OSI-027; first compound 0.06325 µM)	relative viability (Cabozantinib + OSI-027; first compound 0.2 µM)	relative viability (Cabozantinib + OSI-027; first compound 0.6325 µM)	relative viability (Cabozantinib + OSI-027; first compound 2 µM)	relative viability (Kobe2602 + Tozasertib; first compound 0.2 µM)	relative viability (Kobe2602 + Tozasertib; first compound 0.6325 µM)	relative viability (Kobe2602 + Tozasertib; first compound 2 µM)	relative viability (Kobe2602 + Tozasertib; first compound 6.325 µM)	relative viability (Kobe2602 + Tozasertib; first compound 20 µM)	relative viability (Zosuquidar + Linsitinib; first compound 0.01 µM)	relative viability (Zosuquidar + Linsitinib; first compound 0.03162 µM)	relative viability (Zosuquidar + Linsitinib; first compound 0.1 µM)	relative viability (Zosuquidar + Linsitinib; first compound 0.3162 µM)	relative viability (Zosuquidar + Linsitinib; first compound 1 µM)	relative viability (Zosuquidar + Decitabine; first compound 0.1 µM)
SW 900	0.478	0.466	0.394	0.421	0.637	0.695	0.637	0.554	0.376	0.561	0.621	0.458	0.379	0.512	–	–	–	–	–	–
NCI-H358	0.23	0.194	0.255	0.19	0.641	0.888	0.628	0.74	0.67	0.0888	0.122	0.0944	0.109	0.103	0.768	0.726	0.715	0.735	0.75	0.214
PC-3 [JPC-3]	0.886	0.925	0.859	0.79	0.652	0.934	–	0.925	0.768	0.885	0.836	0.849	0.858	0.807	0.945	0.956	0.817	0.929	0.981	0.791
NCI-H1651	0.644	0.685	0.617	0.588	0.725	0.69	0.612	0.796	0.581	0.683	0.681	0.621	0.584	0.774	0.937	1.01	0.895	0.939	0.953	0.483
HCC-827	0.302	0.367	0.307	0.295	0.782	0.861	–	0.679	0.526	0.444	0.448	0.391	0.416	0.425	1	0.902	0.943	0.879	0.96	0.266
HCC-366	0.322	0.291	0.515	0.277	0.753	1.03	0.951	0.795	0.778	0.0819	0.0969	0.0807	0.0437	0.0481	0.641	0.682	0.641	0.597	0.783	0.429
HARA	0.474	0.542	0.492	0.629	0.309	0.633	0.377	0.57	0.555	0.117	0.102	0.122	0.508	0.123	0.84	0.993	0.959	1.04	1.11	0.607
NCI-H520	0.505	0.523	0.472	0.47	0.215	0.289	0.247	0.286	0.218	0.519	0.507	0.402	0.38	0.481	0.984	0.945	0.888	0.946	1.08	0.395
NCI-H1299	–	–	–	–	–	–	–	–	–	–	–	–	–	–	1.03	0.955	0.967	0.992	0.959	–
SW 1573	0.372	0.508	0.598	0.591	0.59	0.891	0.669	0.606	0.492	0.194	0.163	0.179	0.271	0.183	0.713	0.728	0.793	0.925	0.859	0.568
CAL-12T	–	–	–	–	0.588	0.688	0.711	0.715	0.645	0.292	0.282	0.248	0.21	0.244	0.776	0.979	0.549	0.894	0.841	–
COR-L 105	0.645	0.712	0.716	0.652	0.682	0.785	–	0.667	0.71	0.364	0.322	0.371	0.401	0.366	0.889	0.975	0.869	1.15	1.05	0.636
NCI-H3122	0.394	0.449	0.508	0.457	0.97	0.963	1.07	1.06	1.4	0.451	0.381	0.399	0.393	0.403	1.01	0.939	0.938	1.07	0.959	0.417
NCI-H2228	–	–	–	–	0.495	0.871	0.576	0.449	0.508	0.19	0.239	0.246	0.234	0.219	0.659	0.922	0.552	0.515	0.685	–
RERF-LC-KJ	0.717	0.727	0.776	0.691	0.498	0.623	0.547	0.602	0.645	0.492	0.528	0.473	0.285	0.271	0.858	0.903	0.876	0.932	0.906	0.691
